Reference: US20170362228A1, “TETRAHYDRO-PYRIDO[3,4-b]INDOLE ESTROGEN RECEPTOR MODULATORS AND USES THEREOF” (Genentech, Inc., priority 2016, published 2017)

What was measured:
[1] = system: immature rat uterus; test: Immature Uterine Wet Weight Assay, agonist mode (Example 906); type: in vivo; details: dosed PO, QD×3
Protocol: Female immature CD-IGS rats (21 days old upon arrival) are treated for three days. Animals are dosed daily for three days. For Antagonist Mode, Vehicle or test compound is administered orally by gavage followed 15 minutes later by an oral dose of 0.1 mg/kg Ethynyl Estradiol. For Agonist Mode, Vehicle or test compound is administered orally by gavage. On the fourth day 24 hours after dose, plasma is collected for pharmacokinetic analysis. Immediately following plasma collection, the animals are euthanized and the uterus removed and weighed.
Uteri and ovaries from 2 animals per group are fixed in 10% neutral buffered formalin and paraffin embedded, sectioned and stained for H&E (SDPath). Stained tissues are analyzed and read by a board certified pathologist. […]
Mice were treated with Formula I compounds (1R,3R)-1-(2,6-difluoro-4-((1-(3-fluoropropyl)azetidin-3-yl)oxy)phenyl)-2-(2-fluoro-2-methylpropyl)-3-methyl-2,3,4,9-tetrahydro-1H-pyrido[3,4-b]indole 101 and (1R,3R)-1-(2,6-difluoro-4-(2-(3-(fluoromethyl)azetidin-1-yl)ethoxy)phenyl)-2-(2-fluoro-2-methylpropyl)-3-methyl-2,3,4,9-tetrahydro-1H-pyrido[3,4-b]indole 102, tamoxifen, fulvestrant, AZD9496 (WO 2014/191726, Example 1, page 74; U.S. Pat. No. 9,155,727), and two controls: Vehicle and Vehicle plus ethynyl estradiol (EE). […] Uterine Wet Weight (UWW): Body Weight ratios were calculated. […]

[2] = target: T1, estrogen receptor alpha (ESR1) (Homo sapiens, UniProt P03372); test: Breast Cancer Cell ERa High Content Fluorescence Imaging Degradation Assay (Example 901); type: cell-based; details: Table 1b; MCF7 breast cancer cells, 4 hours; plateau of the maximal effect
T1 construct: endogenous in cells; host or cells: MCF7 breast cancer cells
T1 sequence (P03372 1-595): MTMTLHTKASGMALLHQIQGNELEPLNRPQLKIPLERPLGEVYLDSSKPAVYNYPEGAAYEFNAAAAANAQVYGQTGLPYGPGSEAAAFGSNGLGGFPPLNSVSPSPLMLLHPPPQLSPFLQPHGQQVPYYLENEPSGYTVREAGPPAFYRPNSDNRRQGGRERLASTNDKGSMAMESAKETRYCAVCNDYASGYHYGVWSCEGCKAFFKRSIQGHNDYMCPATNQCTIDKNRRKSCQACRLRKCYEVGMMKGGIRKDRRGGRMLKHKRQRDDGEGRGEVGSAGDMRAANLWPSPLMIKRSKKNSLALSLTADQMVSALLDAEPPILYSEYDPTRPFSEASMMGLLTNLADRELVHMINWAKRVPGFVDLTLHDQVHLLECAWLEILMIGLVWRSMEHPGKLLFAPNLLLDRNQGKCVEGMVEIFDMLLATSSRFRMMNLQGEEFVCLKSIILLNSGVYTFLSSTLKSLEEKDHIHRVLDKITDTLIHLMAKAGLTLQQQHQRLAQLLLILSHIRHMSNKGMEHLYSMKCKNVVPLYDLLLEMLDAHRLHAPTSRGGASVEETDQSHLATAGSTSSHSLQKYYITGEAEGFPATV
How it was run: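 MCF7 cells in phenol red-free RPMI with 10% charcoal-stripped FBS, exposed to compound at 0.05–835 nM (10-point, 1.8×, duplicate; 0.84% DMSO) for 4 h at 37 °C. Fixed cells immunostained for ESR1 (F10 mAb, Alexa 488) with Hoechst nuclear mask; nuclear ESR1 intensity imaged per cell. DMSO and 5 nM fulvestrant set 0%/100%; EC50 and Sinf by robust fit.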

[3] = system: MCF7 cells; test: In vitro cell proliferation assays (Examples 902 and 903), MCF7; type: cell-based; details: Homo sapiens, MCF7, Table 1b, read-out: ER-alpha MCF7 HCS (EC50)

SMILES | activity in agonist mode UWW assay [1] | ER-alpha MCF7 HCS (S inf) [2] [%] | EC50 [3] [nM]
C[C@@H]1Cc2c([nH]c3ccccc23)[C@@H](c2c(F)cc(/C=C/C(=O)O)cc2F)N1CC(C)(C)F [AZD9496] | partial agonist | – | –
CO[C@@H](c1cc(F)c([C@@H]2c3[nH]c4ccccc4c3C[C@@H](C)N2CC(F)(F)CO)c(F)c1)C1CN(CCCF)C1 [Compound 169, 3-((1R,3R)-1-(2,6-Difluoro-4-((R)-(1-(3-fluoropropyl)azetidin-3-yl)(methoxy)methyl)phenyl)-3-methyl-3,4-dihydro-1H-pyrido[3,4-b]indol-2(9H)-yl)-2,2-difluoropropan-1-ol] | – | −89 | 0.108
CO[C@H](c1cc(F)c([C@@H]2c3[nH]c4ccccc4c3C[C@@H](C)N2CC(F)(F)CO)c(F)c1)C1CN(CCCF)C1 [Compound 170, 3-((1R,3R)-1-(2,6-Difluoro-4-((S)-(1-(3-fluoropropyl)azetidin-3-yl)(methoxy)methyl)phenyl)-3-methyl-3,4-dihydro-1H-pyrido[3,4-b]indol-2(9H)-yl)-2,2-difluoropropan-1-ol] | – | −94 | 0.078
C[C@@H]1Cc2c([nH]c3ccccc23)[C@@H](c2ccc([C@H](O)C3CN(CCCF)C3)c(F)c2)N1CC(F)(F)CO [Compound 171, 2,2-difluoro-3-((1R,3R)-1-(3-fluoro-4-((R)-(1-(3-fluoropropyl)azetidin-3-yl)(hydroxy)methyl)phenyl)-3-methyl-1,3,4,9-tetrahydro-2H-pyrido[3,4-b]indol-2-yl)propan-1-ol] | – | −93 | 0.087
C[C@@H]1Cc2c([nH]c3ccccc23)[C@@H](c2ccc([C@@H](O)C3CN(CCCF)C3)c(F)c2)N1CC(F)(F)CO [Compound 172, 2,2-difluoro-3-((1R,3R)-1-(3-fluoro-4-((S)-(1-(3-fluoropropyl)azetidin-3-yl)(hydroxy)methyl)phenyl)-3-methyl-1,3,4,9-tetrahydro-2H-pyrido[3,4-b]indol-2-yl)propan-1-ol] | – | −101 | 0.051
C[C@@H]1Cc2c([nH]c3ccccc23)[C@@H](c2ccc([C@H](O)C3CN(CCCF)C3)c(F)c2F)N1CC(F)(F)CO [Compound 173, 3-((1R,3R)-1-(2,3-difluoro-4-((R)-(1-(3-fluoropropyl)azetidin-3-yl)(hydroxy)methyl)phenyl)-3-methyl-1,3,4,9-tetrahydro-2H-pyrido[3,4-b]indol-2-yl)-2,2-difluoropropan-1-ol] | – | −100 | 0.072
C[C@@H]1Cc2c([nH]c3ccccc23)[C@@H](c2ccc([C@@H](O)C3CN(CCCF)C3)c(F)c2F)N1CC(F)(F)CO [Compound 174, 3-((1R,3R)-1-(2,3-difluoro-4-((S)-(1-(3-fluoropropyl)azetidin-3-yl)(hydroxy)methyl)phenyl)-3-methyl-1,3,4,9-tetrahydro-2H-pyrido[3,4-b]indol-2-yl)-2,2-difluoropropan-1-ol] | – | −97 | 0.071
COc1cc([C@@H]2c3[nH]c4ccccc4c3C[C@@H](C)N2CC(F)(F)CO)ccc1[C@H](O)C1CN(CCCF)C1 [Compound 175, 2,2-difluoro-3-((1R,3R)-1-(4-((R)-(1-(3-fluoropropyl)azetidin-3-yl)(hydroxy)methyl)-3-methoxyphenyl)-3-methyl-1,3,4,9-tetrahydro-2H-pyrido[3,4-b]indol-2-yl)propan-1-ol] | – | −96 | 0.63
COc1cc([C@@H]2c3[nH]c4ccccc4c3C[C@@H](C)N2CC(F)(F)CO)ccc1[C@@H](O)C1CN(CCCF)C1 [Compound 176, 2,2-difluoro-3-((1R,3R)-1-(4-((S)-(1-(3-fluoropropyl)azetidin-3-yl)(hydroxy)methyl)-3-methoxyphenyl)-3-methyl-1,3,4,9-tetrahydro-2H-pyrido[3,4-b]indol-2-yl)propan-1-ol] | – | −81 | 5.8
